Test results from PubChem BioAssay (NCI).
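At the GI50, growth is halved. TGI marks complete inhibition of growth.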

What was measured:
Assay in all cases: DTP human tumour cell line panel, 384-well format
SN12C renal = system: SN12C renal
TK-10 renal = system: TK-10 renal
RPMI-8226 leukemia = system: RPMI-8226 leukemia
SK-MEL-2 melanoma = system: SK-MEL-2 melanoma
A498 renal = system: A498 renal
OVCAR-8 ovarian = system: OVCAR-8 ovarian
COLO 205 colon = system: COLO 205 colon
SF-295 CNS = system: SF-295 CNS
SW-620 colon = system: SW-620 colon
K-562 leukemia = system: K-562 leukemia
MALME-3M melanoma = system: MALME-3M melanoma
HCT-15 colon = system: HCT-15 colon
UACC-257 melanoma = system: UACC-257 melanoma
SK-MEL-28 melanoma = system: SK-MEL-28 melanoma
KM12 colon = system: KM12 colon
CAKI-1 renal = system: CAKI-1 renal
DU-145 prostate = system: DU-145 prostate
MDA-MB-435 melanoma = system: MDA-MB-435 melanoma
SK-MEL-5 melanoma = system: SK-MEL-5 melanoma
PC-3 prostate = system: PC-3 prostate
HS 578T breast = system: HS 578T breast
SK-OV-3 ovarian = system: SK-OV-3 ovarian
MDA-MB-468 breast = system: MDA-MB-468 breast
OVCAR-3 ovarian = system: OVCAR-3 ovarian
HCT-116 colon = system: HCT-116 colon
RXF 393 renal = system: RXF 393 renal
HL-60(TB) leukemia = system: HL-60(TB) leukemia
T-47D breast = system: T-47D breast
HCC-2998 colon = system: HCC-2998 colon
HT29 colon = system: HT29 colon
MDA-MB-231 breast = system: MDA-MB-231 breast
U251 glioblastoma = system: U251 glioblastoma
IGROV1 ovarian = system: IGROV1 ovarian
A549 NSCLC = system: A549 NSCLC
UO-31 renal = system: UO-31 renal
MCF7 breast = system: MCF7 breast
HOP-92 NSCLC = system: HOP-92 NSCLC
BT-549 breast = system: BT-549 breast
NCI/ADR-RES ovarian = system: NCI/ADR-RES ovarian
LOX IMVI melanoma = system: LOX IMVI melanoma
NCI-H322M lung = system: NCI-H322M lung
M14 melanoma = system: M14 melanoma
EKVX NSCLC = system: EKVX NSCLC
UACC-62 melanoma = system: UACC-62 melanoma
NCI-H23 lung = system: NCI-H23 lung
NCI-H226 lung = system: NCI-H226 lung
SR leukemia = system: SR leukemia
786-0 renal = system: 786-0 renal
NCI-H522 lung = system: NCI-H522 lung
SF-268 CNS = system: SF-268 CNS
SNB-75 CNS = system: SNB-75 CNS
OVCAR-4 ovarian = system: OVCAR-4 ovarian
MOLT-4 leukemia = system: MOLT-4 leukemia
SNB-19 CNS = system: SNB-19 CNS
HOP-62 NSCLC = system: HOP-62 NSCLC
NCI-H460 NSCLC = system: NCI-H460 NSCLC
SF-539 CNS = system: SF-539 CNS
OVCAR-5 ovarian = system: OVCAR-5 ovarian
ACHN renal = system: ACHN renal

Compound `COc1cc(OC)cc(N(CCNC(C)C)c2ccc3ncc(-c4cnn(C)c4)nc3c2)c1` has a GI50 (SN12C renal) of 3.19 µM, a TGI (SN12C renal) of 10.8 µM and a GI50 (TK-10 renal) of 2.79 µM. The TGI (TK-10 renal) was 10.1 µM, the GI50 (RPMI-8226 leukemia) was 3.68 µM and the TGI (RPMI-8226 leukemia) was 12.3 µM. The GI50 (SK-MEL-2 melanoma) was 2.15 µM, the TGI (SK-MEL-2 melanoma) was 4.8 µM and the GI50 (A498 renal) was 2.68 µM. The TGI (A498 renal) was 8.53 µM, the GI50 (OVCAR-8 ovarian) was 5.09 µM and the TGI (OVCAR-8 ovarian) was 14.1 µM. It also gave a GI50 (COLO 205 colon) of 4.59 µM, a TGI (COLO 205 colon) of 12.6 µM and a GI50 (SF-295 CNS) of 9.3 µM. For the same compound, the TGI (SF-295 CNS) was 18.3 µM, the GI50 (SW-620 colon) was 4.34 µM and the TGI (SW-620 colon) was 14.2 µM. For the same compound, the GI50 (K-562 leukemia) was 0.89 µM, the TGI (K-562 leukemia) was 2.15 µM and the GI50 (MALME-3M melanoma) was 2.27 µM. It also gave a TGI (MALME-3M melanoma) of 4.97 µM, a GI50 (HCT-15 colon) of 2.99 µM and a TGI (HCT-15 colon) of 10.1 µM. It also gave a GI50 (UACC-257 melanoma) of 2.28 µM, a TGI (UACC-257 melanoma) of 4.72 µM and a GI50 (SK-MEL-28 melanoma) of 6.2 µM. It also gave a TGI (SK-MEL-28 melanoma) of 16.4 µM, a GI50 (KM12 colon) of 4.88 µM and a TGI (KM12 colon) of 16.1 µM. It also gave a GI50 (CAKI-1 renal) of 1.59 µM, a TGI (CAKI-1 renal) of 4.16 µM and a GI50 (DU-145 prostate) of 4.12 µM. For the same compound, the TGI (DU-145 prostate) was 14 µM, the GI50 (MDA-MB-435 melanoma) was 3.49 µM and the TGI (MDA-MB-435 melanoma) was 10.6 µM. The GI50 (SK-MEL-5 melanoma) was 1.66 µM, the TGI (SK-MEL-5 melanoma) was 3.66 µM and the GI50 (PC-3 prostate) was 3.61 µM. For the same compound, the TGI (PC-3 prostate) was 13.1 µM, the GI50 (HS 578T breast) was 1.5 µM and the TGI (HS 578T breast) was 3.73 µM. It also gave a GI50 (SK-OV-3 ovarian) of 2.01 µM, a TGI (SK-OV-3 ovarian) of 5.35 µM and a GI50 (MDA-MB-468 breast) of 2.01 µM. For the same compound, the TGI (MDA-MB-468 breast) was 4.47 µM, the GI50 (OVCAR-3 ovarian) was 3.62 µM and the TGI (OVCAR-3 ovarian) was 13.1 µM. The GI50 (HCT-116 colon) was 2.96 µM, the TGI (HCT-116 colon) was 9.31 µM and the GI50 (RXF 393 renal) was 1.02 µM. For the same compound, the TGI (RXF 393 renal) was 2.89 µM, the GI50 (HL-60(TB) leukemia) was 2.51 µM and the TGI (HL-60(TB) leukemia) was 4.65 µM. It also gave a GI50 (T-47D breast) of 6.41 µM, a TGI (T-47D breast) of 12.6 µM and a GI50 (HCC-2998 colon) of 4.52 µM. The TGI (HCC-2998 colon) was 9.47 µM, the GI50 (HT29 colon) was 3.97 µM and the TGI (HT29 colon) was 11.2 µM. It also gave a GI50 (MDA-MB-231 breast) of 2.75 µM, a TGI (MDA-MB-231 breast) of 8.18 µM and a GI50 (U251 glioblastoma) of 5.92 µM. It also gave a TGI (U251 glioblastoma) of 14.8 µM, a GI50 (IGROV1 ovarian) of 2.19 µM and a TGI (IGROV1 ovarian) of 5.78 µM. For the same compound, the GI50 (A549 NSCLC) was 3.73 µM, the TGI (A549 NSCLC) was 11.2 µM and the GI50 (UO-31 renal) was 3.04 µM. It also gave a TGI (UO-31 renal) of 8.81 µM, a GI50 (MCF7 breast) of 7.81 µM and a TGI (MCF7 breast) of 15.3 µM. The GI50 (HOP-92 NSCLC) was 2.91 µM, the TGI (HOP-92 NSCLC) was 9.38 µM and the GI50 (BT-549 breast) was 0.63 µM. The TGI (BT-549 breast) was 5.83 µM, the GI50 (NCI/ADR-RES ovarian) was 3.56 µM and the TGI (NCI/ADR-RES ovarian) was 11.8 µM. It also gave a GI50 (LOX IMVI melanoma) of 2.71 µM, a TGI (LOX IMVI melanoma) of 6.09 µM and a GI50 (NCI-H322M lung) of 3.88 µM. It also gave a TGI (NCI-H322M lung) of 12.9 µM, a GI50 (M14 melanoma) of 2.85 µM and a TGI (M14 melanoma) of 7.68 µM. The GI50 (EKVX NSCLC) was 7.26 µM, the TGI (EKVX NSCLC) was 15.7 µM and the GI50 (UACC-62 melanoma) was 3.49 µM. For the same compound, the TGI (UACC-62 melanoma) was 12.4 µM, the GI50 (NCI-H23 lung) was 4.66 µM and the TGI (NCI-H23 lung) was 13.5 µM. For the same compound, the GI50 (NCI-H226 lung) was 2.57 µM, the TGI (NCI-H226 lung) was 11 µM and the GI50 (SR leukemia) was 1.57 µM. The TGI (SR leukemia) was 2.94 µM, the GI50 ([…]-0 renal) was 2.17 µM and the TGI (786-0 renal) was 5.11 µM. The GI50 (NCI-H522 lung) was 3.44 µM, the TGI (NCI-H522 lung) was 10.3 µM and the GI50 (SF-268 CNS) was 4.42 µM. The TGI (SF-268 CNS) was 15.9 µM, the GI50 (SNB-75 CNS) was 0.132 µM and the TGI (SNB-75 CNS) was 1.69 µM. For the same compound, the GI50 (OVCAR-4 ovarian) was 4.66 µM, the TGI (OVCAR-4 ovarian) was 17.1 µM and the GI50 (MOLT-4 leukemia) was 1.51 µM. The TGI (MOLT-4 leukemia) was 2.93 µM, the GI50 (SNB-19 CNS) was 9.29 µM and the TGI (SNB-19 CNS) was 22 µM. The GI50 (HOP-62 NSCLC) was 4.16 µM, the TGI (HOP-62 NSCLC) was 13 µM and the GI50 (NCI-H460 NSCLC) was 2.63 µM. For the same compound, the TGI (NCI-H460 NSCLC) was 7.1 µM, the GI50 (SF-539 CNS) was 0.946 µM and the TGI (SF-539 CNS) was 7.77 µM. It also gave a GI50 (OVCAR-5 ovarian) of 5.47 µM, a TGI (OVCAR-5 ovarian) of 17 µM and a GI50 (ACHN renal) of 2.03 µM. It also gave a TGI (ACHN renal) of 5.45 µM.
